Results: PMC5487681, “Identification of Antifungal H^+-ATPase Inhibitors with Effect on Plasma Membrane Potential” (Antimicrobial Agents and Chemotherapy, 2017)
In brackets after ≈: the same amount, converted by molar mass. Like-named read-outs stand apart in the source and are kept apart here.

Key:
[1] = tested on: Aspergillus fumigatus ATCC 13073; test: microbe, parasite or virus in culture; conditions: for MIC: Aspergillus fumigatus
Protocol: (§1) The following fungal isolates were used: Saccharomyces cerevisiae ATCC 9763, Candida albicans SC5314, Candida parapsilosis ATCC 22019, Candida tropicalis Ct016, Candida glabrata ATCC 90030, Aspergillus fumigatus ATCC 13073, and Aspergillus flavus ATCC MYA-1005. Frozen stocks of yeast isolates in glycerol (final concentration, 20%) were prepared by growing the cells to log phase in YPD medium at 30°C and 150 rpm. Frozen stocks of mold spores were prepared by harvesting spores from 7-day-old potato glucose agar plates in phosphate-buffered saline, 0.1% Tween 80 and aliquoting these spores in the presence of glycerol (final concentration, 20%). The cells were stored at −80°C. The cells or spores were thawed and diluted to a final concentration of 0.5 × 10^5 to 2.5 × 10^5 CFU/ml in sterile Milli-Q H2O. […] The plate was incubated for 20 to 24 h at 34°C (72 h for molds), and the OD490 was measured on a Victor X5 (PerkinElmer) plate reader. Mold growth assay plates were also visually inspected. The MIC was defined as the lowest concentration inhibiting the visual growth of the microorganism.

Candida albicans SC5314 = test: microbe, parasite or virus in culture; conditions: for MIC: Candida albicans
Protocol: as §1

[2] = tested on: Candida glabrata ATCC 90030; test: microbe, parasite or virus in culture; conditions: for MIC: Nakaseomyces glabratus
Protocol: as §1

[3] = tested on: Candida parapsilosis ATCC 22019; test: microbe, parasite or virus in culture; conditions: for MIC: Lodderomyces parapsilosis
Protocol: as §1

Candida tropicalis Ct016 = test: microbe, parasite or virus in culture; conditions: for MIC: Candida tropicalis
Protocol: as §1

S. cerevisiae Pma1 = S. cerevisiae Pma1 (Saccharomyces cerevisiae, UniProt P05030); test: ATP hydrolysis assay, S. cerevisiae plasma membranes containing Pma1; assay type: biochemical; parameters: containing the full-length cDNA of the S. cerevisiae plasma membrane H^+-ATPase isoform PMA1; made in house; host or cells: S. cerevisiae RS72 (PMA1 cDNA under PMA1 promoter); also wild-type S. cerevisiae ATCC 9763
Sequence of S. cerevisiae Pma1 (P05030 whole entry, canonical isoform): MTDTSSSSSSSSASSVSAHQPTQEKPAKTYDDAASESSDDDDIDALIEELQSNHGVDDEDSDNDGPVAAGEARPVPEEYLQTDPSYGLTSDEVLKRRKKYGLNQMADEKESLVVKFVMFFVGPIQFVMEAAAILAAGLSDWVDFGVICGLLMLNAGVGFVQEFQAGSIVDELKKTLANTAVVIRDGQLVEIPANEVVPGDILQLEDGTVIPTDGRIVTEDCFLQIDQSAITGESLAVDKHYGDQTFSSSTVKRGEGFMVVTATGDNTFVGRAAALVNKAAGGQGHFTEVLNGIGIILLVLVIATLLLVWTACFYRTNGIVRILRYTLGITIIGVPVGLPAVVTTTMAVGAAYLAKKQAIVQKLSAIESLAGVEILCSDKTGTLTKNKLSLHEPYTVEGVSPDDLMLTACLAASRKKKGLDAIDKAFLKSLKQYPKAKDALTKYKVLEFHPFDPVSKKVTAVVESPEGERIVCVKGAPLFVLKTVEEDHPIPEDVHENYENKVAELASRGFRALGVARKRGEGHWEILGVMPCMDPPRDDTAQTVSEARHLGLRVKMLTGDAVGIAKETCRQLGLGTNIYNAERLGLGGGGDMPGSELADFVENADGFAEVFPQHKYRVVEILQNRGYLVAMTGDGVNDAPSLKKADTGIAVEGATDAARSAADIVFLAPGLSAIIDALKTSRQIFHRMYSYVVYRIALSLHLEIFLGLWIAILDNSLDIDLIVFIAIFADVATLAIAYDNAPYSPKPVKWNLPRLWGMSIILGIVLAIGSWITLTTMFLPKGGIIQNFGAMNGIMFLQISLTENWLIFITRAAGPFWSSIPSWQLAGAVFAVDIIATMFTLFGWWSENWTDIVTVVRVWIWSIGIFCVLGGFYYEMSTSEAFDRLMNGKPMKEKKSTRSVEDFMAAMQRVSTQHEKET
Protocol: Plasma membranes containing Pma1 were isolated from S. cerevisiae RS72 cells containing the full-length cDNA of the S. cerevisiae plasma membrane H^+-ATPase isoform PMA1 under the control of the PMA1 promoter, as described in reference.
A 100-ml overnight culture in YPD medium [10 g/liter yeast extract (BD, Sparks, MD), 20 g/liter Bacto peptone (BD), 20 g/liter D-(+)-glucose] was transferred to 1 liter YPD medium and grown at room temperature and 150 rpm for 18 h for wild-type S. cerevisiae (ATCC 9763) and 7 h for C. albicans. The cells were harvested and washed in Milli-Q H2O by centrifugation at 3,360 × g. The cells were glucose activated by the addition of 10% D-(+)-glucose for 10 min while shaking. The cells were then centrifuged at 3,360 × g for 3 min and frozen. Cells (60 to 80 g, wet weight) were then disrupted by bead beating (BioSpec, Bartlesville, OK) and processed as described in reference to prepare the plasma membranes. […] All batches were validated by ATPase hydrolysis activity, pH optimum, and orthovanadate sensitivity.
The protein activity levels were determined by measuring the amount of free phosphate produced from the ATP hydrolysis reaction. The assay was performed as described in reference. Each well contained ATPase enzyme, 2 μl of inhibitor (usually in the range of 333 to 0.01 μM) dissolved in dimethyl sulfoxide (DMSO) (Duchefa Biochemie, Haarlem, The Netherlands), and an assay buffer dependent on the enzyme for a final volume of 60 μl. Possible compound precipitation in the assay buffer was monitored using a Nephelostar plate reader measuring turbidity, and the information was taken into account in the IC50 determination. Pma1 assay buffer consisted of 20 mM 3-(N-morpholino)propanesulfonic acid (MOPS)–NaOH, pH 6.5 or 7.0, 8 mM MgSO4, 50 mM KNO3 (a vacuolar ATPase inhibitor), 25 mM sodium azide (a mitochondrial ATPase inhibitor), and 250 μM sodium molybdate (an acid phosphatase inhibitor). SERCA buffer consisted of 9 mM MOPS-NaOH, pH 7, 2.7 mM MgCl2, 90 μM CaCl2, and 72 mM KCl. Na^+,K^+-ATPase buffer consisted of 30 mM MOPS-NaOH, pH 7, 40 mM NaCl, 4 mM MgCl2, and 20 mM KCl. The concentration of protein was adjusted to obtain a signal of the optical density at 860 nm (OD860) of between 0.5 and 1.0 in the untreated samples (for all Pma1 batches, ∼1 to 2 μg/well; for SERCA and Na^+,K^+-ATPase, ∼0.1 to 0.2 μg/well). […]

[4] = ATCC13073, 72 h, pH 7, read-out: MIC A. fumigatus
[5] = SC5314, pH 7, read-out: MIC C. albicans
[6] = ATCC90030, pH 7, read-out: MIC C. glabrata
[7] = ATCC22019, pH 7, read-out: MIC C. parapsilosis
[8] = CT016, pH 7, read-out: MIC C. tropicalis
[9] = Table 1, ATP hydrolysis at pH 7, 2 to 3 experiments, read-out: IC50 Pma1
[10] = ATCC13073, read-out: MIC for growth inhibition, A. fumigatus
[11] = SC5314, read-out: Growth inhibition MIC, C. albicans in RPMI
[12] = SC5314, read-out: MIC for growth inhibition, C. albicans
[13] = ATCC90030, read-out: MIC for growth inhibition, C. glabrata
[14] = ATCC22019, read-out: MIC for growth inhibition, C. parapsilosis
[15] = CT016, read-out: MIC for growth inhibition, C. tropicalis
[16] = Table 2, pH 7, n = 2, read-out: IC50 for ATP hydrolysis, S. cerevisiae Pma1

Row | Compound | MIC [1, 4] [µM] | MIC (Candida albicans SC5314; [5]) [µM] | MIC [2, 6] [µM] | MIC [3, 7] [µM] | MIC (Candida tropicalis Ct016; [8]) [µM] | IC50 (S. cerevisiae Pma1; [9]) [µM] | MIC [1, 10] [µM] | MIC (Candida albicans SC5314; [11]) [µM] | MIC (Candida albicans SC5314; [12]) [µM] | MIC [2, 13] [µM] | MIC [3, 14] [µM] | MIC (Candida tropicalis Ct016; [15]) [µM] | IC50 (S. cerevisiae Pma1; [16]) [µM] | Selectivity toward Pma1 than toward SERCA or Na^+,K^+-ATPase (S. cerevisiae Pma1; from IC50 of Table 2) | further results
1 | CCCCOc1ccc(C2C(C#N)=C(N)Oc3cc(O)ccc32)cc1 (stereo not drawn) [Compound 11] | > 150 | > 150 | > 150 | > 150 | > 150 | 12.8 ± 5 |  |  |  |  |  |  |  |  | 
2 | COc1ccc(Cn2c(SCc3cc(C)ccc3C)nc3cc(OC)c(OC)cc3c2=N)cc1 [Compound 12] | > 150 | 12 (≈ 5.71 µg/mL) | > 150 | > 150 | > 150 | 15.5 ± 8.1 |  |  |  |  |  |  |  |  | 
3 | CCCCc1nc2sc3c(NCCCN(C)C)ncnc3c2c2c1CCCC2 [Compound 14] | 75 (≈ 29.8 µg/mL) | 36 (≈ 14.3 µg/mL) | 41 (≈ 16.3 µg/mL) | 24 (≈ 9.54 µg/mL) | 24 (≈ 9.54 µg/mL) | 13.7 ± 2 | 75 (≈ 29.8 µg/mL) | 36 (≈ 14.3 µg/mL) | 36 (≈ 14.3 µg/mL) | 41 (≈ 16.3 µg/mL) | 24 (≈ 9.54 µg/mL) | 24 (≈ 9.54 µg/mL) | 13.7 ± 2 |  | Selectivity for Pma1 over SERCA (S. cerevisiae Pma1; from IC50 of Table 2): 3 fold
4 | CCCCc1nc2sc3c(NCCCN(C)C)nc(SC)nc3c2c2c1CCC2 [Compound 15] |  |  |  |  |  |  | 15 (≈ 6.44 µg/mL) | 4.8 (≈ 2.06 µg/mL) | 4.8 (≈ 2.06 µg/mL) | 15 (≈ 6.44 µg/mL) | 15 (≈ 6.44 µg/mL) | 47 (≈ 20.2 µg/mL) | 5.9 ± 0.2 | no selectivity | 
5 | CN(C)CCCNc1ncnc2c1sc1nc(N3CCCCC3)c3c(c12)CCCC3 [Compound 16] |  |  |  |  |  |  | 15 (≈ 6.37 µg/mL) | 15 (≈ 6.37 µg/mL) | 15 (≈ 6.37 µg/mL) | 11 (≈ 4.67 µg/mL) | 15 (≈ 6.37 µg/mL) | 28 (≈ 11.9 µg/mL) | 7.8 ± 0.6 | no selectivity | 
6 | CCc1nc2sc3c(NCCCN(C)C)ncnc3c2c2c1CCCC2 [Compound 17] |  |  |  |  |  |  | > 150 | 150 (≈ 55.4 µg/mL) | 150 (≈ 55.4 µg/mL) | 150 (≈ 55.4 µg/mL) | 150 (≈ 55.4 µg/mL) | 150 (≈ 55.4 µg/mL) | 107 ± 18.2 |  | IC50 (S. cerevisiae Pma1; ATP hydrolysis, S. cerevisiae Pma1, read-out: IC50 for Pma1): 107 µM
7 | CN(C)CCCNc1ncnc2c1sc1nc(-c3ccccc3)c3c(c12)CCC3 [Compound 18] |  |  |  |  |  |  | 75 (≈ 30.3 µg/mL) | 75 (≈ 30.3 µg/mL) | 75 (≈ 30.3 µg/mL) | 41 (≈ 16.5 µg/mL) | 24 (≈ 9.69 µg/mL) | 58 (≈ 23.4 µg/mL) | 18.5 ± 4.3 |  | Selectivity for Pma1 over Na^+,K^+-ATPase (S. cerevisiae Pma1; from IC50 of Table 2): 4 fold; Selectivity for Pma1 over SERCA (S. cerevisiae Pma1; from IC50 of Table 2): 3 fold
8 | CCN(CC)CCCNc1nc(SC)nc2c1sc1nc(-c3ccccc3)c3c(c12)CCC3 [Compound 19] |  |  |  |  |  |  | 12 (≈ 5.73 µg/mL) | 7 (≈ 3.34 µg/mL) | 6 (≈ 2.87 µg/mL) | 3.7 (≈ 1.77 µg/mL) | 3.7 (≈ 1.77 µg/mL) | 3.7 (≈ 1.77 µg/mL) | 7.3 ± 1 | no selectivity | 
9 | O=c1c2ccccc2[se]n1-c1ccccc1 [Ebselen, reference compound] |  |  |  |  |  |  | 24 (≈ 6.58 µg/mL) |  | 7.5 (≈ 2.06 µg/mL) | 7.5 (≈ 2.06 µg/mL) | 24 (≈ 6.58 µg/mL) | 11 (≈ 3.02 µg/mL) |  |  | 
10 | [O]=[V]([O-])([O-])[O-] [Vanadate, reference compound] |  |  |  |  |  |  |  |  |  |  |  |  | 0.25 ± 0.01 |  | MIC for growth inhibition, A. fumigatus ([1]; Table 3): >750 µM; MIC for growth inhibition, C. albicans (Candida albicans SC5314; Table 3): >750 µM; MIC for growth inhibition, C. glabrata ([2]; Table 3): >750 µM; MIC for growth inhibition, C. parapsilosis ([3]; Table 3): >750 µM; MIC for growth inhibition, C. tropicalis (Candida tropicalis Ct016; Table 3): >750 µM
